According to patent publication US8859496B2, “Pharmaceutical composition using connective-tissue growth factor” (Postech Academy-Industry Foundation, priority 2010, dated 2014):
No end group written: not given here.

Assays:
HUVECs [1] = assay: ERK phosphorylation in HUVECs (immunoblot); assay type: cell-based, human
Procedure: Vector/RBL cells, FPR/RBL cells, FPRL1/RBL cells, and HUVECs were cultured to confluence, and serum-starved. The stimulated cells (1×10^5 cells) were washed with PBS twice, dissolved in 1 ml of sample buffer (50 mM Tris-HCl, 100 mM NaCl, 0.1% SDS, 1% Nonidet P-40, 50 mM NaF, 1 mM Na3VO4, 1 μg/ml aprotinin, 1 μg/ml pepstatin, and 1 μg/ml leupeptin), heated at 95° C. for 30 seconds, separated with SDS-PAGE, and then, transferred to a nitrocellulose film. Immunoblot was conducted using anti-phospho-ERK (extracellular signal regulated kinase)1/2 (Thr^202/Tyr^204)(Cell Signaling Technology, Beverly, Mass., USA), anti-ERK1/2 (Cell Signaling Technology, Beverly, Mass., USA), anti-CTGF (Abcam, Cambridge, Mass., USA), anti-Actin (Sigma, St. Louis, Mo., USA), or anti-Flag (Sigma, St. Louis, Mo., USA) antibody, and then, the film was visualized with a chemiluminescence substrate (Amersham Pharmacia).
Meanwhile, HUVECs were treated with the CTGF linker polypeptide or rhCTGF at various concentrations for 5 minutes, cell lysate was obtained, and then, immuboblot was conducted with anti-phospho ERK1/2 antibody, and the results are shown in FIG. 14.

FPRL1 in HUVECs = molecular target: T1, FPRL1 in HUVECs (Homo sapiens, UniProt P25090); assay: Flow cytometry binding of biotinylated linker polypeptide in HUVECs
T1 construct: endogenous in cells; host or cells: HUVECs
T1 sequence (P25090 1-351): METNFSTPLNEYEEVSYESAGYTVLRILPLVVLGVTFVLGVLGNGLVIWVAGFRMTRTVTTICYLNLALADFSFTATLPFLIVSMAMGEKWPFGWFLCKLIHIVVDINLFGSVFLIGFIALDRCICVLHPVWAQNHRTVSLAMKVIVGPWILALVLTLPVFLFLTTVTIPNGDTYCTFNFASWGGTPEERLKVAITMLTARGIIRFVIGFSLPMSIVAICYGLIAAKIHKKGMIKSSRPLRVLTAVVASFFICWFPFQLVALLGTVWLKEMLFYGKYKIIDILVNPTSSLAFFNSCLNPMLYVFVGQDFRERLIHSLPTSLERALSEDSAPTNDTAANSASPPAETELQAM
Procedure: To evaluate the degree of binding of linker polypeptide corresponding to the link region of human CTGF, linker polypeptide was labeled using a EZ-Link Micro Sulfo-NHS-LC-Biotinylation kit (Pierce Chemical Co., Rockford, Ill., USA) according to the manufacturer's instruction. The linker polypeptide was cultured at room temperature for 1 hour in PBS with 9 mM sulfo-NHS-LC-biotin (Pierce Chemical Co., Rockford, Ill., USA). During biotinylation, vector/RBL cells, FPR/RBL cells, FPRL1/RBL cells, or HUVECs were treated with trypsin, and collected, and then, treated with rabbit serum at room temperature for 30 minutes. After culturing the biotinylated linker polypeptide in the ice for 30 minutes, the cells were shortly washed with ice-cold PBS, cultured with antihuman fluoroscein-5-isothiocyanate (FITC)-conjugated streptavidin (Pierce Chemical Co.), and then, washed with ice-cold PBS, and fixed with 1% formaldehyde solution. And then, they were analyzed using FACS Caliber system (BD Biosciences, San Jose, Calif.) with CellQuest and WinMDI 2.9 software according to previously known method (He, R., Sang, H. & Ye, R. D. Serum amyloid A induces IL-8 secretion through a G protein-coupled receptor, FPRL1/LXA4R. Blood 101, 1572-1581, 2003).
It was examined whether the CTGF linker polypeptide binds to FPRL1 in HUVECs as described in the <Experiment method 7>, and the results are shown in FIG. 13. […]

HUVECs [2] = assay: HUVEC proliferation assay ([3H]-thymidine); assay type: cell-based, human
Procedure: For proliferation assay, HUVECs were plate cultured in a gelatin-coated 24-well culture dish at 2×10^4 cells/well and allowed to adhere overnight. 4 hours after serum was depleted, the cells were treated with various mitogen (CTGF linker polypeptide, CTGF) for 48 hours. [^3H]-thymidine (1 μCi, Amersham International) was added to each well 6 hours before final culture. The inserted [^3H]-thymidine was extracted in 0.2 M NaOH and 0.1% SDS solution at 37° C. for 1 hour. Radioactivity was measured using liquid scintillation counter (Beckmann Instruments), which was repeated three times, and the result was indicated by mean±standard deviation per minute.
(§1) First, 20 ng/ml of VEGF-A was administered to HUVECs, the degree of cell proliferation, cell migration, or tube formation was confirmed by the <Experiment method 9>, and the results are shown in FIGS. 22 to 24. At this time, FPRL1 antagonist WRW4 was additionally added.

HUVECs [3] = assay: HUVEC tube formation on Matrigel; assay type: cell-based, human
Procedure: Meanwhile, to analyze tube formation, HUVECs were inoculated on the previously polymerized Matrigel (BD Biosciences) layer together with a certain amount of linker polypeptide, rhCTGF or VEGF-A165. After culturing for 18 hours, the shape of the cells was observed by phase-contrast microscopy, and photographed with 40× magnification. By measuring the length of tubes 5 times in LPF (low-power fields) randomly selected from each well using image-Pro Plus v4.5 (Media Cybernetics, Silver Spring, Md.), the degree of tube formation was quantified.
as §1

[4] = tested on: CAM (chorioallantoic membrane); assay: In vivo CAM (chorioallantoic membrane) angiogenesis analysis
Procedure: In vivo CAM analysis was conducted according to a previously known method (Lee, M.-S. et al. Angiogenic Activity of Pyruvic Acid in in Vivo and in Vitro Angiogenesis Models. Cancer Res 61, 3290-3293, 2001).
Fertilized eggs were cultured in an egg breeder set to fixed moisture at 37° C. 3 days after the culture, to take off expressed CAM from the shell, about 2 ml of egg albumin was taken out with 18-gague subcutaneous needle. After additionally culturing for 6 days, thermanox coverslips (Nunc) containing the sample was dried in the air, and applied to the CAM surface to test the activity of angiogenesis by linker polypeptide or rhCTGF. After 3 days, 1-2 ml of 10% (w/v) Intralipose was injected into chorioallantois, and observed with microscope.
And, it was confirmed by the <Experiment method 10> that in case HUVECs are treated with FPRL1 antagonist (10 ug/CAM) in vivo, angiogenesis activity of VEGF-A (25 ng/CAM) is inhibited, and the results are shown in FIG. 28.

Row | binding of linker polypeptide in HUVECs (flow cytometry shift) (FPRL1 in HUVECs; 10 nM, 30 minutes, compared to vehicle) | effect of antagonist on linker polypeptide binding in HUVECs (FPRL1 in HUVECs; WRW4 10 uM with 10 nM CTGF linker polypeptide) | Substance | ERK phosphorylation in HUVECs (HUVECs [1]; various concentrations, 5 minutes) | proliferation of HUVECs (HUVECs [2]; 48 hours, [3H]-thymidine) | tube formation of HUVECs (HUVECs [3]; 18 hours, compared to recombinant CTGF) | angiogenesis in vivo (CAM) ([4]; sample on coverslip on CAM, 3 days) | effect of antagonist on ERK phosphorylation in HUVECs (HUVECs [1]; WRW4 10 uM) | effect of antagonist on HUVEC proliferation by VEGF-A (HUVECs [2]; VEGF-A 20 ng/ml plus WRW4) | effect of antagonist on HUVEC tube formation induced by VEGF-A (HUVECs [3]; VEGF-A 20 ng/ml, WRW4 10 uM) | effect of antagonist on HUVEC tube formation induced by CTGF linker polypeptide (HUVECs [3]; WRW4 10 uM) | effect of antagonist on CAM angiogenesis induced by VEGF-A ([4]; FPRL1 antagonist 10 ug/CAM, VEGF-A 25 ng/CAM) | effect of antagonist on CAM blood vessel formation induced by CTGF linker polypeptide ([4]; WRW4 10 uM)
1 | average value shifts right | – | EWVCDEPKDQTVVGPALAAYRLEDTFGPDPTMIRANCLV (EWVCDEPKDQTVVGPALAAYRLEDTFGPDPTMIRANCLV-NH2; cysteine pairing not given here) [CTGF linker polypeptide] | ERK phosphorylation is effectively induced | induces proliferation of HUVECs in a concentration-dependent manner, the degree is not statistically significant | induces tube formation of HUVECs more effectively than recombinant CTGF | very strongly induces angiogenesis also in vivo in a concentration-dependent manner | – | – | – | – | – | –
2 | – | the shift is not observed | WRWWWW (FPRL1 antagonist) [WRW4] | – | – | – | – | ERK phosphorylation is inhibited | did not exhibit statistically significant inhibition of HUVECs proliferation by VEGF-A | the tube formation is not induced | the tube formation is not be induced | strongly inhibits angiogenesis induced by VEGF-A | the blood vessel formation is not induced
